Experimental data as given in the supplement of paper PMC11451515.

Key:
Assay in all cases: AUC of viability dose-response curve (% viability x log10 dose units); higher = less sensitive
Settings in all cases: 48 h
[1] = tested on: SEM cells
Procedure, shortened: (§1)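 Over 48 h at 37°C, leukemia cells in 1536-well plates (500 or 1000 cells/well), adapted to each medium, received library compounds in DMSO at 11 threefold doses from 47 μM to 0.79 nM. CellTiter-Glo One luminescence, normalised per plate to DMSO and cell-free wells, was fitted by a four-parameter log-logistic function of log10 dose. The area under the curve was then integrated by trapezoidal rule, after scaling curves above full viability and removing those that failed quality control.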

[2] = tested on: P12-Ichikawa
Procedure, shortened: as §1

[3] = tested on: NOMO1
Procedure, shortened: as §1

[4] = RPMI 5 mM glucose + 10% dialyzed FBS

Row | SMILES | AUC of viability dose-response curve ([1]; HPLM + 10% dialyzed FBS) | AUC of viability dose-response curve ([1]; RPMI 5 mM glucose + 10% FBS) | AUC of viability dose-response curve [1, 4] | AUC of viability dose-response curve ([2]; HPLM + 10% dialyzed FBS) | AUC of viability dose-response curve ([2]; RPMI 5 mM glucose + 10% FBS) | AUC of viability dose-response curve [2, 4] | AUC of viability dose-response curve ([3]; HPLM + 10% dialyzed FBS) | AUC of viability dose-response curve ([3]; RPMI 5 mM glucose + 10% FBS) | AUC of viability dose-response curve [3, 4]
1 | CC[C@H](NC1=C2N=C[NH]C2=NC=N1)C/3=N/C4=C(C(=CC=C4)F)C(=O)N3C5=CC=CC=C5 | 411 | 430 | 442 | 436 | 395 | 401 | 433 | 450 | 432
2 | N[S+]([O-])(=O)C1=C(Cl)C=C2\N=C/N[S+]([O-])(=O)C2=C1 | 380 | 426 | 418 | 459 | 456 | 468 | 465 | 470 | 475
3 | CC[C@]12CC[C@H]3[C@@H](CCC/4=C/C(=O)CC[C@H]34)[C@@H]1\C=C/[C@@]2(O)C#C | 446 | 465 | 464 | 473 | 473 | 470 | 461 | 451 | 450
4 | Cc1c(C)n(Cc2ccc(-c3ccccc3C(=O)O)cc2)c2ccc(C(=O)N[C@@H](C)c3ccc([N+](=O)[O-])cc3)cc12 | 460 | 466 | 470 | 425 | 423 | 422 | 421 | 411 | 417
5 | CNCC(O)c1ccc(O)cc1 (centres undefined) | 423 | 452 | 459 | 464 | 466 | 469 | 446 | 455 | 441
6 | O=C(Nc1cccc(C(F)(F)F)c1)Nc1cc([S+](=O)([O-])NC2CC2)ccc1-c1ccsc1 | 466 | 399 | 454 | 466 | 465 | 460 |  |  | 
7 | O=C(Nc1cc(Cl)cc2c1[nH]c1cnccc12)c1cccnc1 | 468 | 452 | 437 | 471 | 461 | 457 | 467 | 477 | 471
8 | O=C(O)Cn1nnc(-c2cc(N3CCC(Oc4cc(F)ccc4Br)CC3)no2)n1 | 422 | 464 | 459 | 413 | 415 | 428 | 357 | 340 | 361
9 | CC1=C(C)C(=O)C(C(CCCCCC(=O)O)c2ccccc2)=C(C)C1=O (centres undefined) | 301 | 301 | 303 | 387 | 414 | 362 | 334 | 293 | 318
10 | CC(C)c1noc(N2CCC(COc3ccc(-c4ccc([S+](C)(=O)[O-])cc4)nc3)CC2)n1 |  |  |  | 454 | 453 | 452 | 467 | 459 | 463
11 | O=C1c2ccccc2-[n+]2ccc3c([nH]c4ccccc43)c21 | 291 | 332 | 311 | 403 | 405 | 407 | 385 | 398 | 390
12 | O=C(C=CC#Cc1cccc(N[S+](=O)([O-])c2ccccc2)c1)NO | 354 | 358 | 352 | 353 | 345 | 346 | 367 | 374 | 371
13 | FC1=C(C=C(C\C2=N\NC(=O)C3=C2C=CC=C3)C=C1)C(=O)N4CCN(CC4)C(=O)C5CC5 |  |  |  | 421 | 390 | 393 | 439 | 400 | 422
14 | NC\1=N\C(=O)N(\C=C1)[C@@H]2O[C@H](CO)[C@@H](O)[C@@H]2O |  |  |  | 38 | 25.6 | 39.2 | 186 | 201 | 154
15 | CC(C)(C#N)c1cc(Cn2cncn2)cc(C(C)(C)C#N)c1 |  |  |  | 466 | 456 | 442 |  |  | 
16 | Cc1nn(Cc2ccccc2Cl)c(C)c1CN(C)CC(O)COc1ccc(Cl)cc1 (centres undefined) | 436 | 432 | 430 | 463 | 440 | 435 | 445 | 428 | 436
17 | FC1=CC=C(C=C1)N2/C=C\C=C(C(=O)NC3=CC=C(OC4=C5C=C[NH]C5=NC=C4)C(=C3)F)/C2=O |  |  |  | 465 | 459 | 466 | 445 | 456 | 459
18 | OC(c1cc(C(F)(F)F)nc2c(C(F)(F)F)cccc12)C1CCCCN1 (centres undefined) | 455 | 453 | 455 | 468 | 458 | 473 | 447 | 453 | 452
19 | C[N]1C=C(C=N1)C2=C3\C=N/NC(=O)C4=C3C(=CC(=C4)NC(=O)[C@H](N)C5CCCCC5)[NH]2 | 309 | 334 | 283 | 395 | 387 | 371 | 403 | 390 | 384
20 | CNc1nc(Nc2ccc(C(=O)N3CCOCC3)cc2OC)ncc1Cl | 434 | 456 | 466 | 448 | 454 | 466 | 434 | 463 | 450
21 | C[C@@H](Oc1cc(-c2cnn(C3CCNCC3)c2)cnc1N)c1c(Cl)ccc(F)c1Cl |  |  |  | 419 | 415 | 400 | 391 | 429 | 424
22 | CCC[S+]([O-])c1ccc2[nH]c(NC(=O)OC)nc2c1 (centres undefined) | 409 | 399 | 411 | 409 | 393 | 405 | 429 | 420 | 384
23 | COc1ccc(-c2ccc3ncc4c(c3c2)n(-c2ccc(N3CCNCC3)c(C(F)(F)F)c2)c(=O)n4C)cn1 |  |  |  |  |  |  | 209 | 255 | 218
24 | C[C@H](NC(=O)c1sccc1OCc1ccc(Cl)cc1)c1ccccc1 | 408 | 449 | 450 | 407 | 398 | 407 | 382 | 388 | 394

Row | SMILES | AUC of viability dose-response curve ([1]; HPLM + 10% dialyzed FBS) | AUC of viability dose-response curve ([1]; RPMI 5 mM glucose + 10% FBS) | AUC of viability dose-response curve [1, 4] | AUC of viability dose-response curve ([2]; HPLM + 10% dialyzed FBS) | AUC of viability dose-response curve ([2]; RPMI 5 mM glucose + 10% FBS) | AUC of viability dose-response curve [2, 4] | AUC of viability dose-response curve ([3]; HPLM + 10% dialyzed FBS) | AUC of viability dose-response curve ([3]; RPMI 5 mM glucose + 10% FBS) | AUC of viability dose-response curve [3, 4]
25 | CCc1ccc(CCOc2ccc(CC3SC(=O)NC3=O)cc2)nc1 (centres undefined) | 444 | 402 | 474 | 450 | 473 | 469 | 448 | 442 | 460
26 | CNCCCC12CCC(c3ccccc31)c1ccccc12 | 453 | 443 | 469 | 442 | 439 | 428 | 429 | 426 | 411
27 | COc1ccc([C@@H]2CC(=O)c3c(O)cc(O[C@@H]4O[C@H](CO[C@@H]5O[C@@H](C)[C@H](O)[C@@H](O)[C@H]5O)[C@@H](O)[C@H](O)[C@H]4O)cc3O2)cc1O | 465 | 469 | 469 | 467 | 468 | 473 | 477 | 457 | 468
28 | COCC1(CO)C(=O)C2CCN1CC2 (centres undefined) |  |  |  | 413 | 414 | 421 | 435 | 446 | 462
29 | CN[C@@H]1[C@@H](O)[C@@H](O[C@@H]2[C@@H](O)[C@H](O[C@H]3O[C@H](CN)[C@@H](O)[C@H](O)[C@H]3O)[C@@H](N)C[C@H]2NC(=O)[C@@H](O)CN)OC[C@]1(C)O | 453 | 463 | 468 | 457 | 449 | 411 | 452 | 457 | 440
30 | COc1cc(F)c(F)c(Nc2ccc(I)cc2F)c1N[S+](=O)([O-])C1(C[C@H](O)CO)CC1 | 465 | 443 | 461 | 450 | 461 | 456 | 449 | 455 | 457
31 | CC(C)(C)OC(=O)N[C@H]1CCCCC/C=C\[C@@H]2C[C@@]2(C(=O)N[S+](=O)([O-])C2CC2)NC(=O)[C@@H]2C[C@@H](OC(=O)N3Cc4cccc(F)c4C3)CN2C1=O | 401 | 441 | 466 | 468 | 467 | 459 | 457 | 468 | 472
32 | COc1ccc([S+](=O)([O-])N(C(C)=O)c2ccccc2/C=C/c2cc[n+]([O-])cc2)cc1 | 352 | 342 | 351 | 353 | 345 | 370 | 351 | 352 | 356
33 | CN(C)C1CCN(C(=O)c2ccc(NC(=O)Nc3nc(N4CCOCC4)nc(N4CCOCC4)n3)cc2)CC1 | 252 | 248 | 247 | 340 | 270 | 275 | 271 | 296 | 272
34 | CC[C@H](/C=C/[C@@H](C)[C@H]1CC[C@H]2[C@@H]3CC=C4C[C@@H](O)CC[C@]4(C)[C@H]3CC[C@]12C)C(C)C | 438 | 458 | 463 | 456 | 449 | 429 | 427 | 434 | 421
35 | S=C(NCc1ccc2c(c1)OCO2)N1CCN(c2ncnc3c2oc2ccccc23)CC1 |  |  |  | 406 | 387 | 389 | 416 | 438 | 445
36 | Clc1ccc(-c2nc3sccn3c2/C=N/OCc2ccc(Cl)c(Cl)c2)cc1 | 453 | 430 | 455 | 448 | 463 | 454 | 445 | 451 | 461
37 | COC\1=C(/OC)C(=O)\C(=C(C)/C1=O)CCCCCCCCCCO | 460 | 471 | 456 | 471 | 456 | 459 | 461 | 464 | 468
38 | CC(C)N[C@@H]1CCn2c(=O)[nH]c3cccc(c32)[C@H]1O | 463 | 465 | 473 | 459 | 437 | 457 | 426 | 460 | 424
39 | OC[C@@H](O)[C@@H](O)[C@H](O)[C@@H](O)CO | 401 | 472 | 452 | 452 | 453 | 449 | 465 | 472 | 445
40 | CC(C)c1nc(CN(C)C(=O)N[C@H](C(=O)N[C@@H](Cc2ccccc2)C[C@H](O)[C@H](Cc2ccccc2)NC(=O)OCc2cncs2)C(C)C)cs1 | 410 | 429 | 427 | 425 | 411 | 396 |  |  | 
41 | CC(C)CNc1ccnc(NCc2csc(-c3ccccc3)n2)n1 | 447 | 447 | 458 | 440 | 436 | 442 | 414 | 456 | 446
42 | CCC1(c2ccccc2)C(=O)NCNC1=O | 441 | 445 | 452 | 471 | 453 | 466 | 442 | 448 | 471
43 | CC1(C)O[C@@H]2C[C@H]3[C@@H]4C[C@H](F)C5=CC(=O)C=C[C@]5(C)[C@@]4(F)[C@@H](O)C[C@]3(C)[C@]2(C(=O)CO)O1 | 305 | 314 | 291 | 324 | 303 | 272 | 460 | 460 | 457
44 | Cc1coc2c1C(=O)C(=O)c1c-2ccc2c(C)cccc12 |  |  |  | 454 | 476 | 446 | 443 | 451 | 460
45 | Cn1cnc2c(F)c(Nc3ccc(Br)cc3F)c(C(=O)NOCCO)cc21 | 392 | 382 | 363 |  |  |  |  |  | 
46 | O=C1[C@H](Cc2ccc(O)cc2)N2C(=O)CCN(C(=O)NCc3ccccc3)[C@H]2CN1Cc1cccc2ccccc12 | 334 | 384 | 363 | 404 | 375 | 361 |  |  | 
47 | COc1ccccc1OCC(O)COC(N)=O (centres undefined) | 467 | 465 | 459 | 466 | 461 | 461 |  |  | 
